Source: patent US20180099961A1, “PROTEIN KINASE INHIBITORS” (Princeton Drug Discovery Inc, priority 2016, published 2018)
Read-outs that look alike come from different tables or passages of the source.

What was measured:
[1] = Metabolic stability in human liver microsomes; type: in vitro ADME; conditions: for metabolic stability as compared to dasatinib: human liver microsomes; for microsomal CLint at 1 μM / half-life at 1 μM: human, liver microsomes, human liver microsomes 0.5 mg/mL, NADPH and UDPGA, 37° C.; for microsomal CLint at 1 μM: read-out: CLint (intrinsic clearance); for half-life at 1 μM: read-out: In vitro t1/2
Experimental: FIG. 1. Metabolic stability of compounds in human liver microsomal incubations. […] Concentrations at specified times were determined by LC-MS/MS.
The incubation reactions at various time points were quenched by adding 2× volumes of acetonitrile containing 100 nM reserpine. The quenched incubation samples were centrifuged at 4000 RPM for 10 min, and the supernatants injected for LC/MS/MS analysis. LC/MS/MS analysis was carried out on a AB Sciex 4000 Q Trap LC/MS/MS system coupled with Shimadzu Prominence UFLCXR 20 series (including a CBM-20A controller, two LC-20ADXR solvent delivery units, SIL-20AC HT autosampler, CTO-20A column oven, and a SPD-20A UV detector).

[2] = Pharmacokinetics in Sprague-Dawley rats, 2-in-1 dosing; type: in vivo; conditions: for intravenous plasma clearance compared to dasatinib and compound III / intravenous volume of distribution compared to dasatinib and compound III: Sprague-Dawley rats; for clearance / Vd / AUC(0-inf) / AUC(0-t) / half-life / bioavailability / Cmax / Tmax: Sprague-Dawley, rat; for clearance / Vd / AUC(0-inf) / AUC(0-t) / half-life / bioavailability: plasma; for clearance: read-out: CL (plasma clearance) (converted); for Vd: read-out: V (volume of distribution); for AUC(0-inf) / AUC(0-t) / half-life / Cmax / Tmax: single dose; for bioavailability: read-out: F (percent oral bioavailability)
Experimental: Sprague-Dawley rats (approximate weight 275-300 g, N=3) were dosed intravenously at 5 mL/kg and orally at 10 mL/kg with the above dosing solutions. Blood samples were collected into tubes containing EDTA as the anticoagulant at 0, 0.25 (intravenous only), 0.5, 1, 2, 4, 8, 10, and 24 h post-dosing, and plasma samples were prepared by centrifugation. The plasma samples were mixed with 3× volumes of acetonitrile containing 100 nM reserpine as the internal standard, and centrifuged at 4000 RPM for 15 min. The supernatants were injected for LC/MS analysis which were carried out on a AB Sciex 4000 Q Trap LC/MS/MS system coupled with Shimadzu Prominence UFLCXR 20 series (including a CBM-20A controller, two LC-20ADXR solvent delivery units, SIL-20AC HT autosampler, CTO-20A column oven, and a SPD-20A UV detector). The samples were separated on a Phenomenex Columbus column (C18, 4 μm, 50×2 mm) eluted with two solvent systems: 2 mM ammonium acetate in water containing 0.1% formic acid (A) and methanol (B) at a linear gradient starting with 25% B. Electrospray ionization in positive mode was used to acquire LC/MS/MS data.

[3] = biological target: T1, BTK (Homo sapiens, UniProt Q06187); assay: Off-chip Mobility Shift Assay; type: biochemical; conditions: read-out: IC50, recombinant BTK activity
T1 construct: purchased Carna Biosciences

[4] = test system: RAF1; assay: Off-chip Mobility Shift Assay; type: biochemical
[5] = iv, 1 mg/kg, intravenous 1 mg/kg, single dose (Table 2)
[6] = iv, 1 mg/kg, intravenous 1 mg/kg, plasma (Table 2)
[7] = iv, 1 mg/kg, intravenous 1 mg/kg, plasma (Table 2), read-out: t1/2 (converted)
[8] = po, 2.5 mg/kg, PO 2.5 mg/kg, plasma (Table 2)
[9] = po, 2.5 mg/kg, PO 2.5 mg/kg, plasma (Table 2), read-out: t1/2 (converted)
[10] = PO 2.5 mg/kg versus intravenous 1 mg/kg, AUCinf dose normalized (Table 2)
[11] = iv, 1 mg/kg, intravenous 1 mg/kg, single dose (Table 3)
[12] = iv, 1 mg/kg, intravenous 1 mg/kg, plasma (Table 3)
[13] = iv, 1 mg/kg, intravenous 1 mg/kg, plasma (Table 3), read-out: t½ (converted)
[14] = po, 5 mg/kg, PO 5 mg/kg, plasma (Table 3)
[15] = po, 5 mg/kg, PO 5 mg/kg, plasma (Table 3), read-out: t½ (converted)

T1 sequence (Q06187 whole entry): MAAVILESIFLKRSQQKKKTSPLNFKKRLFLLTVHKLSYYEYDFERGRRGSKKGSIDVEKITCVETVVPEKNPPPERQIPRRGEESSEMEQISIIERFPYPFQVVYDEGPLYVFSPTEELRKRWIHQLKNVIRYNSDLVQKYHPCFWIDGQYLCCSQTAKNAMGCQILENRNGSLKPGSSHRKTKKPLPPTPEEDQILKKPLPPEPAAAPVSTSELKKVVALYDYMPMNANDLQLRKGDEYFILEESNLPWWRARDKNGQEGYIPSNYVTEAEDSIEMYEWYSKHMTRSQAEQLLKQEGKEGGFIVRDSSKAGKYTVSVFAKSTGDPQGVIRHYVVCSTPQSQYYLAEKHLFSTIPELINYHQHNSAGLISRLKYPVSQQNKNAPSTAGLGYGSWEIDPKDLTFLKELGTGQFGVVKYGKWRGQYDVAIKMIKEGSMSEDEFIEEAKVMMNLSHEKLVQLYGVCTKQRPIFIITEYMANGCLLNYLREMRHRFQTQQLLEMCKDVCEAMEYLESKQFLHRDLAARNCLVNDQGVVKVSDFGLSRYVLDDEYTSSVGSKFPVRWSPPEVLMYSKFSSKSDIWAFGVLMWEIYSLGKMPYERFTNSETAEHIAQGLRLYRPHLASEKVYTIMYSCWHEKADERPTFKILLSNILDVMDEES

Row | metabolic stability as compared to dasatinib [1] | microsomal CLint at 1 μM [1] [µL/min/mg] | half-life at 1 μM [1] [h] | clearance [2, 5] [mL/min/kg] | Vd [2, 5] [L/kg] | AUC(0-inf) [2, 6] [ng·h/mL] | AUC(0-t) [2, 6] [ng·h/mL] | half-life [2, 7] [h] | AUC(0-inf) [2, 8] [ng·h/mL] | AUC(0-t) [2, 8] [ng·h/mL] | half-life [2, 9] [h] | bioavailability [2, 10] [%] | Cmax ([2]; PO 2.5 mg/kg, plasma (Table 2)) [ng/mL] | Tmax ([2]; PO 2.5 mg/kg, plasma (Table 2)) [h] | Compound | other results
1 | significantly greater stability | < 24 | > 0.983 | 8.57 | 1 | 1960 ± 214 | 1960 ± 214 | 1.4 ± 0.1 | 539 ± 188 | 524 ± 191 | 4.4 ± 2.8 | 11.1 ± 4.3 | 35 ± 19 | 5.5 ± 4.3 | [2H]c1cc(C)c(NC(=O)c2cnc(Nc3cc(N4CC[C@@H](O)C4)nc(C)n3)s2)c(Cl)c1 [Compound V, N-(2-chloro-4-deutero-6-methylphenyl)-2-[[2-methyl-6-((R)-3-hydroxypyrrolidin-1-yl)pyrimidin-4-yl]amino]thiazole-5-carboxamide] | intravenous plasma clearance compared to dasatinib and compound III [2]: much lower; intravenous volume of distribution compared to dasatinib and compound III [2]: significantly lower
2 | significantly greater stability |  |  |  |  |  |  |  |  |  |  |  |  |  | Cc1nc(Nc2ncc(C(=O)Nc3c(C)cccc3Cl)s2)cc(N2CCCCC2)n1 [Compound VIII, N-(2-chloro-6-methylphenyl)-2-[[2-methyl-6-(piperidin-1-yl)pyrimidin-4-yl]amino]thiazole-5-carboxamide] | 
3 | significantly greater stability |  |  |  |  |  |  |  |  |  |  |  |  |  | [2H]c1cc(C)c(NC(=O)c2cnc(Nc3cc(N4CC[C@H](N)C4)nc(C)n3)s2)c(Cl)c1 [Compound VI, N-(2-chloro-4-dutero-6-methylphenyl)-2-[[2-methyl-6-((S)-3-aminopyrrolidin-1-yl)pyrimidin-4-yl]amino]thiazole-5-carboxamide] | 
4 | significantly greater stability | < 24 | > 0.983 | 8.92 | 1 | 1880 ± 153 | 1880 ± 152 | 1.4 ± 0.1 | 892 ± 341 | 891 ± 341 | 2.3 ± 0.2 | 18.9 ± 6.7 | 82 ± 13 | 5.5 ± 4.3 | [2H]c1cc(C)c(NC(=O)c2cnc(Nc3cc(N4CC[C@H](O)C4)nc(C)n3)s2)c(Cl)c1 [Compound IV, N-(2-chloro-4-deutero-6-methylphenyl)-2-[[2-methyl-6-((S)-3-hydroxypyrrolidin-1-yl)pyrimidin-4-yl]amino]thiazole-5-carboxamide] | intravenous plasma clearance compared to dasatinib and compound III [2]: much lower; intravenous volume of distribution compared to dasatinib and compound III [2]: significantly lower
5 | significantly greater stability |  |  |  |  |  |  |  |  |  |  |  |  |  | [2H]c1cc(C)c(NC(=O)c2cnc(Nc3cc(N4CC[C@@H](N)C4)nc(C)n3)s2)c(Cl)c1 [Compound VII, N-(2-chloro-4-deutero-6-methylphenyl)-2-[[2-methyl-6-((R)-3-aminopyrrolidin-1-yl)pyrimidin-4-yl]amino]thiazole-5-carboxamide] | 
6 |  | 56 | 0.417 |  |  |  |  |  |  |  |  |  |  |  | Cc1nc(Nc2ncc(C(=O)Nc3c(C)cccc3Cl)s2)cc(N2CCC(O)CC2)n1 [Compound IX, N-(2-chloro-6-methylphenyl)-2-[[2-methyl-6-(4-hydroxypiperidin-1-yl)pyrimidin-4-yl]amino]thiazole-5-carboxamide] | 
7 |  | 44 | 0.533 |  |  |  |  |  |  |  |  |  |  |  | [2H]c1cc(C)c(NC(=O)c2cnc(Nc3cc(N4CCC(O)CC4)nc(C)n3)s2)c(Cl)c1 [Compound II, N-(2-chloro-4-deuterio-6-methyl-phenyl)-2-[[6-(4-hydroxy-1-piperidyl)-2-methyl-pyrimidin-4-yl]amino]thiazole-5-carboxamide] | IC50 [3]: < 1 nM; inhibition of RAF1 ([4]; 1 nM): < 50%; inhibition of RAF1 ([4]; 10 nM): < 50%; inhibition of RAF1 ([4]; 100 nM): < 50%
8 | significantly greater stability |  |  |  |  |  |  |  |  |  |  |  |  |  | Cc1nc(Nc2ncc(C(=O)Nc3c(C)cccc3Cl)s2)cc(N2CC[C@@H](N)C2)n1 [Compound XIII, N-(2-chloro-6-methylphenyl)-2-[[2-methyl-6-((R)-3-aminopyrrolidin-1-yl)pyrimidin-4-yl]amino]thiazole-5-carboxamide] | 
9 | significantly greater stability |  |  |  |  |  |  |  |  |  |  |  |  |  | Cc1nc(Nc2ncc(C(=O)Nc3c(C)cccc3Cl)s2)cc(N2CC[C@H](N)C2)n1 [Compound XII, N-(2-chloro-6-methylphenyl)-2-[[2-methyl-6-((S)-3-aminopyrrolidin-1-yl)pyrimidin-4-yl]amino]thiazole-5-carboxamide] | 
10 |  |  | 0.4 | 20.2 | 3 | 835 ± 114 | 835 ± 114 | 1.6 ± 0.1 | 144 ± 68 | 139 ± 69 | 4.7 ± 2.2 | 7.2 ± 4.2 | 9 ± 6 | 5.5 ± 4.3 | [2H]c1cc(C)c(NC(=O)c2cnc(Nc3cc(N4CCN(CCO)CC4)nc(C)n3)s2)c(Cl)c1 [Compound III] | clearance [2, 11]: 18.6 mL/min/kg; Vd [2, 11]: 3 L/kg; AUC(0-inf) [2, 12]: 917 ± 161 ng·h/mL; AUC(0-t) [2, 12]: 916 ± 161 ng·h/mL; half-life [2, 13]: 1.7 ± 0.2 h; AUC(0-inf) [2, 14]: 137 ± 20 ng·h/mL; AUC(0-t) [2, 14]: 124 ± 26 ng·h/mL; half-life [2, 15]: 8.2 ± 4.1 h; bioavailability ([2]; PO 5 mg/kg versus intravenous 1 mg/kg, AUCinf dose normalized (Table 3)): 6 ± 0.9%; Cmax ([2]; PO 5 mg/kg, plasma (Table 3)): 11 ± 11 ng/mL; Tmax ([2]; PO 5 mg/kg, plasma (Table 3)): 0.5 h
11 |  |  |  | 21.3 | 3 | 784 ± 54 | 783 ± 54 | 1.5 | 196 ± 85 | 193 ± 86 | 3.5 ± 0.5 | 9.8 ± 3.6 | 15 ± 5 | 5.5 ± 4.3 | Cc1nc(Nc2ncc(C(=O)Nc3c(C)cccc3Cl)s2)cc(N2CCN(CCO)CC2)n1 [Dasatinib, reference compound] | clearance [2, 11]: 16.5 mL/min/kg; Vd [2, 11]: 2 L/kg; AUC(0-inf) [2, 12]: 1010 ± 68 ng·h/mL; AUC(0-t) [2, 12]: 1010 ± 68 ng·h/mL; half-life [2, 13]: 1.7 ± 0.3 h; AUC(0-inf) [2, 14]: 97 ± 22 ng·h/mL; AUC(0-t) [2, 14]: 93 ± 23 ng·h/mL; half-life [2, 15]: 5.9 ± 1.5 h; Cmax ([2]; PO 5 mg/kg, plasma (Table 3)): 7 ± 7 ng/mL; Tmax ([2]; PO 5 mg/kg, plasma (Table 3)): 0.5 h
